In brackets after ≈: the same amount, converted by molar mass. Activity calls are given as the source filed them. The rule behind the calls is not given here. Peptide text beside a SMILES is read from it.
What was measured:
Salmonella typhimurium [1] = assay: Antibacterial activity against Salmonella typhimurium DT104 in the presence of NaCl by MH broth based assay; format: functional, Salmonella enterica subsp. enterica serovar Typhimurium; conditions: Salmonella enterica
Salmonella typhimurium [2] = assay: Antibacterial activity against Salmonella typhimurium DT104 in the presence of KCl by MH broth based assay; format: functional, Salmonella enterica subsp. enterica serovar Typhimurium; conditions: Salmonella enterica
Salmonella typhimurium [3] = assay: Antibacterial activity against Salmonella typhimurium DT104 in the presence of NH4Cl by MH broth based assay; format: functional, Salmonella enterica subsp. enterica serovar Typhimurium; conditions: Salmonella enterica
Salmonella typhimurium [4] = assay: Antibacterial activity against Salmonella typhimurium DT104 in the presence of CaCl2 by MH broth based assay; format: functional, Salmonella enterica subsp. enterica serovar Typhimurium; conditions: Salmonella enterica
Salmonella typhimurium [5] = assay: Antibacterial activity against Salmonella typhimurium DT104 in the presence of MgCl2 by MH broth based assay; format: functional, Salmonella enterica subsp. enterica serovar Typhimurium; conditions: Salmonella enterica
Salmonella typhimurium [6] = assay: Antibacterial activity against Salmonella typhimurium DT104 in the presence of FeCl3 by MH broth based assay; format: functional, Salmonella enterica subsp. enterica serovar Typhimurium; conditions: Salmonella enterica
Salmonella typhimurium [7] = assay: Antibacterial activity against Salmonella typhimurium DT104 in the presence 25% inactivated mouse serum by MH broth based assay; format: functional, Salmonella enterica subsp. enterica serovar Typhimurium; conditions: Salmonella enterica
Salmonella typhimurium [8] = assay: Antibacterial activity against Salmonella typhimurium DT104 in the presence 50% inactivated mouse serum by MH broth based assay; format: functional, Salmonella enterica subsp. enterica serovar Typhimurium; conditions: Salmonella enterica
Staphylococcus aureus [9] = assay: Antibacterial activity against Staphylococcus aureus ATCC 29213 incubated overnight by standard microtiter dilution method; format: functional
Staphylococcus aureus [10] = assay: Antibacterial activity against methicillin-resistant Staphylococcus aureus ATCC 43300 incubated overnight by standard microtiter dilution method; format: functional
[11] = system: Staphylococcus epidermidis; assay: Antibacterial activity against methicillin-resistant Staphylococcus epidermidis ATCC 12228 incubated overnight by standard microtiter dilution method; format: functional
Enterococcus faecalis = assay: Antibacterial activity against Enterococcus faecalis ATCC 29212 incubated overnight by standard microtiter dilution method; format: functional
Escherichia coli = assay: Antibacterial activity against Escherichia coli O157:H7 CICC 21530 incubated overnight by standard microtiter dilution method; format: functional
Salmonella paratyphi = assay: Antibacterial activity against Salmonella paratyphi A CICC 21501 incubated overnight by standard microtiter dilution method; format: functional, Salmonella enterica subsp. enterica serovar Paratyphi A; conditions: Salmonella enterica
[12] = system: Salmonella enterica subsp. enterica serovar Paratyphi B; assay: Antibacterial activity against Salmonella paratyphi B CICC 21495 incubated overnight by standard microtiter dilution method; format: functional
[13] = Antibacterial activity against Salmonella paratyphi C CICC 21512 incubated overnight by standard microtiter dilution method; format: functional, Salmonella enterica subsp. enterica serovar Paratyphi C; conditions: Salmonella enterica
[14] = Antibacterial activity against Salmonella enterica subsp. enterica serovar Choleraesuis ATCC 13312 incubated overnight by standard microtiter dilution method; format: functional
[15] = Antibacterial activity against Salmonella enterica subsp. enterica serovar Choleraesuis CICC 21493 incubated overnight by standard microtiter dilution method; format: functional
Salmonella enteritidis = assay: Antibacterial activity against Salmonella enteritidis CICC 21527 incubated overnight by standard microtiter dilution method; format: functional, Salmonella enterica subsp. enterica serovar Enteritidis; conditions: Salmonella enterica
[16] = Antibacterial activity against Salmonella wandsworth CICC 21504 incubated overnight by standard microtiter dilution method; format: functional, Salmonella enterica subsp. enterica serovar Wandsworth; conditions: Salmonella enterica
Salmonella typhimurium [17] = assay: Antibacterial activity against Salmonella typhimurium CICC 21483 incubated overnight by standard microtiter dilution method; format: functional, Salmonella enterica subsp. enterica serovar Typhimurium; conditions: Salmonella enterica
Salmonella typhimurium [18] = assay: Antibacterial activity against Salmonella typhimurium CICC 21913 incubated overnight by standard microtiter dilution method; format: functional, Salmonella enterica subsp. enterica serovar Typhimurium; conditions: Salmonella enterica
[19] = Antibacterial activity against Salmonella blockley CICC 21489 incubated overnight by standard microtiter dilution method; format: functional, Salmonella enterica subsp. enterica serovar Blockley; conditions: Salmonella enterica
[20] = Antibacterial activity against Salmonella dublin CICC 21497 incubated overnight by standard microtiter dilution method; format: functional, Salmonella enterica subsp. enterica serovar Dublin; conditions: Salmonella enterica
Salmonella typhimurium [21] = assay: Antibacterial activity against Salmonella typhimurium DT104 ATCC 700408 incubated overnight by standard microtiter dilution method; format: functional, Salmonella enterica subsp. enterica serovar Typhimurium; conditions: Salmonella enterica
Candida albicans = assay: Antifungal activity against Candida albicans ATCC 10231 incubated overnight by standard microtiter dilution method; format: functional
Erythrocyte = assay: Hemolytic activity in human Red blood cells assessed as hemolysis incubated for 1 hrs by absorbance based microplate reader analysis; format: toxicity, cell-based
[22] = Hemolytic activity in human Red blood cells assessed as hemolysis at 128 ug/ml incubated for 1 hrs by absorbance based microplate reader analysis relative to control; format: toxicity, cell-based, Erythrocyte; conditions: red blood cells (erythrocytes), at 128 µg/mL, read-out: Activity
Lipopolysaccharide (LPS) = assay: Displacement of BODIPY-TR-cadaverine from Salmonella typhimurium LPS assessed as increase in fluorescence intensity by fluorescence spectrophotometric analysis; conditions: Salmonella enterica subsp. enterica serovar Typhimurium; dose 0.25-8 µg/ml
RAW264.7 [23] = assay: Inhibition of LPS-stimulated NO production in mouse RAW264.7 cells incubated for 24 hrs by Griess reagent based analysis; format: functional, cell-based; conditions: dose 1-128 µg/ml
RAW264.7 [24] = assay: Inhibition of LPS-stimulated TNF-alpha production in mouse RAW264.7 cells at 1 to 128 ug/ml incubated for 24 hrs by ELISA analysis; format: functional, cell-based; conditions: dose 1-128 µg/ml
RAW264.7 [25] = assay: Inhibition of LPS-stimulated IL-1beta production in mouse RAW264.7 cells at 1 to 128 ug/ml incubated for 24 hrs by ELISA analysis; format: functional, cell-based; conditions: dose 1-128 µg/ml
RAW264.7 [26] = assay: Inhibition of LPS-stimulated IL-8 production in mouse RAW264.7 cells at 1 to 128 ug/ml incubated for 24 hrs by ELISA analysis; format: functional, cell-based; conditions: dose 1-128 µg/ml
Cell membrane = assay: Disruption of membrane integrity in Salmonella typhimurium DT104 assessed as increase in fluorescence intensity at 0.5 to 2 times of MIC incubated for 15 mins by PI staining based flow cytometric analysis; format: subcellular; conditions: Salmonella enterica subsp. enterica serovar Typhimurium

SMILES: CC(C)C[C@H](NC(=O)[C@H](CCCNC(=N)N)NC(=O)CNC(=O)CNC(=O)[C@@H](N)CCCNC(=N)N)C(=O)N[C@H]1CSSC[C@@H](C(=O)N[C@H](C(=O)NCC(=O)N[C@@H](CCCNC(=N)N)C(N)=O)C(C)C)NC(=O)[C@H](C(C)C)NC(=O)[C@@H]2CSSC[C@H](NC(=O)[C@H](Cc3ccc(O)cc3)NC1=O)C(=O)N[C@@H](CCCNC(=N)N)C(=O)N[C@@H](CCCNC(=N)N)C(=O)N[C@@H](CCCNC(=N)N)C(=O)N[C@@H](Cc1ccccc1)C(=O)N2
- MIC (Salmonella typhimurium [1]): 16 µg/mL
- MIC (Salmonella typhimurium [2]): 8 µg/mL
- MIC (Salmonella typhimurium [3]): 8 µg/mL
- MIC (Salmonella typhimurium [4]): 16 µg/mL
- MIC (Salmonella typhimurium [5]): 8 µg/mL
- MIC (Salmonella typhimurium [6]): 32 µg/mL
- MIC (Salmonella typhimurium [7]): 32 µg/mL (≈ 14.8 µM)
- MIC (Salmonella typhimurium [8]): 64 µg/mL (≈ 29.7 µM)

SMILES: CC(C)[C@H](NC(=O)CNC(=O)[C@H](CC(N)=O)NC(=O)CNC(=O)[C@H](Cc1ccc(O)cc1)NC(=O)[C@H](Cc1ccc(O)cc1)NC(=O)[C@@H](N)CCCCN)C(=O)N[C@@H](Cc1c[nH]cn1)C(=O)N[C@@H](CS)C(=O)N[C@H](C(=O)N[C@@H](CCCCN)C(=O)N[C@@H](CO)C(=O)NCC(=O)N[C@@H](CS)C(=O)N[C@@H](CO)C(=O)N[C@H](C(=O)N[C@@H](CC(N)=O)C(=O)N[C@@H](Cc1c[nH]c2ccccc12)C(N)=O)C(C)C)[C@@H](C)O (H-KYYGNGVHCTKSGCSVNW-NH2)
- MIC (Staphylococcus aureus [9]): > 128 µg/mL
- MIC (Staphylococcus aureus [10]): > 128 µg/mL
- MIC [11]: 64 µg/mL (≈ 32 µM)
- MIC (Enterococcus faecalis): > 128 µg/mL
- MIC (Escherichia coli): 64 µg/mL (≈ 32 µM)
- MIC (Salmonella paratyphi): 128 µg/mL (≈ 63.9 µM)
- MIC [12]: 32 µg/mL (≈ 16 µM)
- MIC [13]: 32 µg/mL (≈ 16 µM)
- MIC [14]: 32 µg/mL (≈ 16 µM)
- MIC [15]: 128 µg/mL (≈ 63.9 µM)
- MIC (Salmonella enteritidis): 64 µg/mL (≈ 32 µM)
- MIC [16]: 64 µg/mL (≈ 32 µM)
- MIC (Salmonella typhimurium [17]): 64 µg/mL (≈ 32 µM)
- MIC (Salmonella typhimurium [18]): > 128 µg/mL
- MIC [19]: 64 µg/mL (≈ 32 µM)
- MIC [20]: 32 µg/mL (≈ 16 µM)
- MIC (Salmonella typhimurium [21]): > 128 µg/mL
- MIC (Candida albicans): 16 µg/mL (≈ 7.99 µM)
- MHC (Erythrocyte): > 128 µg/mL
- MIC (Salmonella typhimurium [1]): > 128 µg/mL
- MIC (Salmonella typhimurium [2]): 128 µg/mL
- MIC (Salmonella typhimurium [3]): 64 µg/mL
- MIC (Salmonella typhimurium [4]): > 128 µg/mL
- MIC (Salmonella typhimurium [5]): 128 µg/mL
- MIC (Salmonella typhimurium [6]): 64 µg/mL
- MIC (Salmonella typhimurium [7]): > 128 µg/mL
- MIC (Salmonella typhimurium [8]): > 128 µg/mL
- hemolysis at 1 h, 128 ug/ml [22]: < 10%
- Activity (Lipopolysaccharide (LPS)): Dose-Dependent Effect
- inhibition (RAW264.7 [23]): Dose-Dependent Effect
- inhibition (RAW264.7 [24]): Active
- inhibition (RAW264.7 [25]): Active
- inhibition (RAW264.7 [26]): Active
- Activity (Cell membrane): inactive

SMILES: CC(C)C[C@H](NC(=O)[C@H](CCCCN)NC(=O)[C@H](CS)NC(=O)CNC(=O)[C@H](CO)NC(=O)[C@H](CCCCN)NC(=O)[C@@H](NC(=O)[C@H](CS)NC(=O)[C@H](CCCCN)NC(=O)[C@@H](N)CC(C)C)[C@@H](C)O)C(N)=O (H-LKCTKSGCKL-NH2)
- MIC (Staphylococcus aureus [9]): > 128 µg/mL
- MIC (Staphylococcus aureus [10]): > 128 µg/mL
- MIC [11]: > 128 µg/mL
- MIC (Enterococcus faecalis): > 128 µg/mL
- MIC (Escherichia coli): > 128 µg/mL
- MIC (Salmonella paratyphi): > 128 µg/mL
- MIC [12]: > 128 µg/mL
- MIC [13]: > 128 µg/mL
- MIC [14]: > 128 µg/mL
- MIC [15]: > 128 µg/mL
- MIC (Salmonella enteritidis): > 128 µg/mL
- MIC [16]: > 128 µg/mL
- MIC (Salmonella typhimurium [17]): > 128 µg/mL
- MIC (Salmonella typhimurium [18]): > 128 µg/mL
- MIC [19]: > 128 µg/mL
- MIC [20]: > 128 µg/mL
- MIC (Salmonella typhimurium [21]): > 128 µg/mL
- MIC (Candida albicans): > 128 µg/mL
- MHC (Erythrocyte): > 128 µg/mL
- MIC (Salmonella typhimurium [1]): > 128 µg/mL
- MIC (Salmonella typhimurium [2]): > 128 µg/mL
- MIC (Salmonella typhimurium [3]): > 128 µg/mL
- MIC (Salmonella typhimurium [4]): > 128 µg/mL
- MIC (Salmonella typhimurium [5]): > 128 µg/mL
- MIC (Salmonella typhimurium [6]): > 128 µg/mL
- MIC (Salmonella typhimurium [7]): > 128 µg/mL
- MIC (Salmonella typhimurium [8]): > 128 µg/mL
- hemolysis at 1 h, 128 ug/ml [22]: < 10%
- Activity (Lipopolysaccharide (LPS)): Dose-Dependent Effect
- inhibition (RAW264.7 [23]): Dose-Dependent Effect
- inhibition (RAW264.7 [24]): Active
- inhibition (RAW264.7 [25]): Active
- inhibition (RAW264.7 [26]): Active

— ChEMBL document CHEMBL5352429, “Designed symmetrical β-hairpin peptides for treating multidrug-resistant salmonella typhimurium infections” (Eur J Med Chem, 2022)
